{
  "source": "patent US20100076037A1",
  "about": "“Methods of Treating Neuropathic Pain with Agonists of PPAR-gamma” (priority 2006, published 2010)",
  "key": {"male Sprague Dawley rats": {"test_system": "male Sprague Dawley rats", "settings": "20 mg/kg/day; cited from earlier work"}, "[1]": {"settings": "cited from earlier work"}, "PPAR δ": {"target": "PPAR δ (Homo sapiens, UniProt Q03181)", "sequence (Q03181 whole entry, species assumed)": "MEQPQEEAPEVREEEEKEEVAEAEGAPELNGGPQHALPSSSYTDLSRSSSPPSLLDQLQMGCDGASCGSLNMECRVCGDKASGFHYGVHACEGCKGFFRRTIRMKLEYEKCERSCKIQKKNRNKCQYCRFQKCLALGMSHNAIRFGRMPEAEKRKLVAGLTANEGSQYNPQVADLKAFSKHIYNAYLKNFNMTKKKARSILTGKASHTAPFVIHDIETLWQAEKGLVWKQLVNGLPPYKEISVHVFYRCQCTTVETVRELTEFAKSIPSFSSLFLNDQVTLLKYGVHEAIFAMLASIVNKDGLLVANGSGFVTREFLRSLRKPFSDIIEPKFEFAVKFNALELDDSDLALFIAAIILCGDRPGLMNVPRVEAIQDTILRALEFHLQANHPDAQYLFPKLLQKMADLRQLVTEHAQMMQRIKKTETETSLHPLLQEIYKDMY", "settings": "cited from earlier work"}, "conscious rats": {"test_system": "conscious rats", "settings": "2 mg/ml at 0.4 ml/h for 2 h bid for 4 days; cited from earlier work"}, "3T3 L1 adipocytes": {"test_system": "3T3 L1 adipocytes", "settings": "cited from earlier work"}, "male db/db mice": {"test_system": "male db/db mice", "settings": "5 mg/kg bid for 14 days; cited from earlier work"}, "[2]": {"test_system": "patients with type II diabetes", "settings": "cited from earlier work"}, "Male Sprague-Dawley rats": {"test_system": "Male Sprague-Dawley rats", "assay": "mechanical allodynia induced by spinal nerve ligation (SNL) in rats, von Frey", "assay_type": "in vivo, rat", "settings": "20 mg/kg PO, post-SNL day 16, vs. vehicle", "method": "Male Sprague-Dawley rats (Hsd:Sprague-Dawley®SD®, Harlan, Indianapolis, Ind., U.S.A.) weighing 223±2 g on Day14 were housed three per cage. Animals had free access to food and water and were maintained on a 12:12 h light/dark schedule for the entire duration of the study. The animal colony was maintained at 21° C. and 60% humidity. All experiments were conducted in accordance with the International Association for the Study of Pain guidelines and were approved by the University of Minnesota Animal Care and Use Committee.\nThe Spinal Nerve Ligation (SNL) model was used to induce chronic neuropathic pain. […]\nBaseline, post-injury and post-treatment values for non-noxious mechanical sensitivity were evaluated using 8 Semmes-Weinstein filaments (Stoelting, Wood Dale, Ill., USA) with varying stiffness (0.4, 0.7, 1.2, 2.0, 3.6, 5.5, 8.5, and 15 g) according to the up-down method. […] The mean and standard error of the mean (SEM) were determined for each paw in each treatment group. […]\nStatistical analyses were conducted using Prism™ 4.01 (GraphPad, San Diego, Calif., USA). Mechanical hypersensitivity of the injured paw was determined by comparing pre-SNL to post-SNL values at Day14. Data were analyzed using the Wilcoxon test. […] Drug effect was analyzed by comparing post-vehicle and post-drug values using the Friedman test followed by a Dunn's post hoc test."}, "[3]": {"test_system": "Zucker diabetic fatty (ZDF) rats", "settings": "cited from earlier work"}, "rats": {"test_system": "rats", "settings": "cited from earlier work"}, "Sprague-Dawley rats": {"test_system": "Sprague-Dawley rats", "settings": "20 mg/kg/day for 2 weeks, cited from earlier work"}},
  "note": "Read-outs that look alike come from different tables or passages of the source.",
  "data": [
    {"smiles": "Cc1oc(-c2ccccc2)nc1CCOc1ccc(C[C@H](Nc2ccccc2C(=O)c2ccccc2)C(=O)O)cc1", "note": "[farglitazar]", "values": [
      {"measurement": "elevation of ENaC α subunit mRNA in kidney medulla", "setting": "male Sprague Dawley rats", "value": 32, "unit": "%"},
      {"measurement": "elevation of PPARgamma mRNA in kidney medulla", "setting": "male Sprague Dawley rats", "value": 31, "unit": "%"},
      {"measurement": "elevation of glucocorticoid receptor mRNA in kidney medulla", "setting": "male Sprague Dawley rats", "value": 13, "unit": "%"},
      {"measurement": "plasma volume", "setting": "male Sprague Dawley rats", "value": "rapid onset of plasma volume expansion"},
      {"measurement": "AUC", "setting": "[1]; 0.5 mg po", "value": 44, "unit": "ng·h/mL"},
      {"measurement": "Cmax", "setting": "[1]; 0.5 mg po", "value": 20, "unit": "ng/mL"},
      {"measurement": "Half-life (t1/2)", "setting": "[1]; 0.5 mg po", "value": 3, "unit": "h"},
      {"measurement": "AUC", "setting": "[1]; 1.5 mg po", "value": 111, "unit": "ng·h/mL"},
      {"measurement": "Cmax", "setting": "[1]; 1.5 mg po", "value": 48, "unit": "ng/mL"},
      {"measurement": "Half-life (t1/2)", "setting": "[1]; 1.5 mg po", "value": 3.9, "unit": "h"},
      {"measurement": "AUC", "setting": "[1]; 5 mg po", "value": 355, "unit": "ng·h/mL"},
      {"measurement": "Cmax", "setting": "[1]; 5 mg po", "value": 168, "unit": "ng/mL"},
      {"measurement": "Half-life (t1/2)", "setting": "[1]; 5 mg po", "value": 4.9, "unit": "h"},
      {"measurement": "AUC", "setting": "[1]; 15 mg po", "value": 963, "unit": "ng·h/mL"},
      {"measurement": "Cmax", "setting": "[1]; 15 mg po", "value": 378, "unit": "ng/mL"},
      {"measurement": "Half-life (t1/2)", "setting": "[1]; 15 mg po", "value": 4.9, "unit": "h"},
      {"measurement": "AUC", "setting": "[1]; 40 mg po", "value": 2636, "unit": "ng·h/mL"},
      {"measurement": "Cmax", "setting": "[1]; 40 mg po", "value": 1173, "unit": "ng/mL"},
      {"measurement": "Half-life (t1/2)", "setting": "[1]; 40 mg po", "value": 5.3, "unit": "h"},
      {"measurement": "tolerability", "setting": "[1]; single oral doses", "value": "well tolerated"},
      {"measurement": "activity at PPAR δ", "setting": "PPAR δ", "value": "inactive"},
      {"measurement": "mean arterial blood pressure", "setting": "conscious rats", "value": "fall"},
      {"measurement": "basal VEGF secretion", "setting": "3T3 L1 adipocytes", "value": "modestly increased"},
      {"measurement": "non-fasted glucose and insulin", "setting": "male db/db mice", "value": "significant decrease"},
      {"measurement": "blood pressure", "setting": "[2]; 5 and 10 mg/day, hypertensive type II diabetic patients", "value": "significantly lowered"},
      {"measurement": "glucose, insulin and triglycerides", "setting": "[2]; 14-day trial, 35 patients", "value": "significant reductions"},
      {"measurement": "mechanical allodynia", "setting": "Male Sprague-Dawley rats", "value": "significantly (p<0.05 vs. vehicle, Dunn's post hoc test) reduced"},
      {"measurement": "rats that maintained normal fed glucose levels throughout the 24-week study", "setting": "[3]; 3 mg/kg/day, start at 6 weeks", "value": "12 of 13"},
      {"measurement": "rats that maintained fed plasma glucose levels", "setting": "[3]; 3 mg/kg/day, start at 10 weeks", "value": "0 of 10"},
      {"measurement": "levels of non-esterified fatty acids", "setting": "[3]; rat, in vivo", "value": "dose-dependently reduced"},
      {"measurement": "vasodilator NO levels", "setting": "rats; 8 mg/kg bid po", "value": "Increased"},
      {"measurement": "systemic vascular pressure and arterial pressure", "setting": "rats; diabetic rats, 8 mg/kg bid, 10 days", "value": "decreased"},
      {"measurement": "serum VEGF", "setting": "Sprague-Dawley rats; high-fat diet", "value": "significantly suppressed"},
      {"measurement": "postprandial serum insulin", "setting": "Sprague-Dawley rats", "value": "normalized"}
    ]}
  ]
}
